#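 Interpolation was linear, between the two tested concentrations surrounding the appropriate level; five concentrations were tested over 48 hours in 96-well plates. TGI is the concentration that stops growth completely.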
# Columns and labels:
# Experiment in all cases: growth of human tumour cells (NCI), 48 h
# SNB-19 CNS = tested on: SNB-19 CNS
# SK-MEL-28 melanoma = tested on: SK-MEL-28 melanoma
# NCI-H226 lung = tested on: NCI-H226 lung
# SN12C renal = tested on: SN12C renal
# IGROV1 ovarian = tested on: IGROV1 ovarian
# MCF7 breast = tested on: MCF7 breast
# CAKI-1 renal = tested on: CAKI-1 renal
# T-47D breast = tested on: T-47D breast
# OVCAR-5 ovarian = tested on: OVCAR-5 ovarian
# A549 NSCLC = tested on: A549 NSCLC
# HOP-62 NSCLC = tested on: HOP-62 NSCLC
# NCI-H522 lung = tested on: NCI-H522 lung
# UACC-62 melanoma = tested on: UACC-62 melanoma
# SR leukemia = tested on: SR leukemia
# RXF 393 renal = tested on: RXF 393 renal
# DU-145 prostate = tested on: DU-145 prostate
# SF-295 CNS = tested on: SF-295 CNS
# HT29 colon = tested on: HT29 colon
# HCC-2998 colon = tested on: HCC-2998 colon
# M14 melanoma = tested on: M14 melanoma
# MOLT-4 leukemia = tested on: MOLT-4 leukemia
# MDA-MB-231 breast = tested on: MDA-MB-231 breast
# HS 578T breast = tested on: HS 578T breast
# HCT-15 colon = tested on: HCT-15 colon
# ACHN renal = tested on: ACHN renal
# NCI-H23 lung = tested on: NCI-H23 lung
# COLO 205 colon = tested on: COLO 205 colon
# OVCAR-8 ovarian = tested on: OVCAR-8 ovarian
# MDA-N = tested on: MDA-N
# EKVX NSCLC = tested on: EKVX NSCLC
# RPMI-8226 leukemia = tested on: RPMI-8226 leukemia
# SK-MEL-2 melanoma = tested on: SK-MEL-2 melanoma
# SNB-75 CNS = tested on: SNB-75 CNS
# PC-3 prostate = tested on: PC-3 prostate
# MALME-3M melanoma = tested on: MALME-3M melanoma
# UO-31 renal = tested on: UO-31 renal
# TK-10 renal = tested on: TK-10 renal
# HCT-116 colon = tested on: HCT-116 colon
# NCI/ADR-RES ovarian = tested on: NCI/ADR-RES ovarian
# K-562 leukemia = tested on: K-562 leukemia
# 786-0 renal = tested on: 786-0 renal
# OVCAR-3 ovarian = tested on: OVCAR-3 ovarian
# KM12 colon = tested on: KM12 colon
# SW-620 colon = tested on: SW-620 colon
# NCI-H460 lung = tested on: NCI-H460 lung
# SF-268 CNS = tested on: SF-268 CNS
# SK-OV-3 ovarian = tested on: SK-OV-3 ovarian
# MDA-MB-435 = tested on: MDA-MB-435
# SK-MEL-5 melanoma = tested on: SK-MEL-5 melanoma
# UACC-257 melanoma = tested on: UACC-257 melanoma
# BT-549 breast = tested on: BT-549 breast
# HOP-92 NSCLC = tested on: HOP-92 NSCLC
# SF-539 CNS = tested on: SF-539 CNS
# LOX IMVI melanoma = tested on: LOX IMVI melanoma
# HL-60(TB) leukemia = tested on: HL-60(TB) leukemia
# OVCAR-4 ovarian = tested on: OVCAR-4 ovarian
# U251 CNS = tested on: U251 CNS
# CCRF-CEM leukemia = tested on: CCRF-CEM leukemia
# A498 renal = tested on: A498 renal
structure (smiles),measurement,setting,value
S=C1C(=Nc2ccccc2)N(c2ccccc2)/C(=N\c2cccc[n+]2Cc2ccccc2)N1c1ccccc1,TGI,SNB-19 CNS,34.8 µM
same,TGI,SK-MEL-28 melanoma,37.3 µM
same,TGI,NCI-H226 lung,40.4 µM
same,TGI,SN12C renal,35.4 µM
same,TGI,IGROV1 ovarian,54.9 µM
same,TGI,MCF7 breast,42.8 µM
same,TGI,CAKI-1 renal,55.7 µM
same,TGI,T-47D breast,61.7 µM
same,TGI,OVCAR-5 ovarian,32.7 µM
same,TGI,A549 NSCLC,52.7 µM
same,TGI,HOP-62 NSCLC,29.8 µM
same,TGI,NCI-H522 lung,31.2 µM
same,TGI,UACC-62 melanoma,25 µM
same,TGI,SR leukemia,79.7 µM
same,TGI,RXF 393 renal,27.3 µM
same,TGI,DU-145 prostate,> 100 µM
same,TGI,SF-295 CNS,27.4 µM
same,TGI,HT29 colon,43 µM
same,TGI,HCC-2998 colon,27.2 µM
same,TGI,M14 melanoma,27.5 µM
same,TGI,MOLT-4 leukemia,> 100 µM
same,TGI,MDA-MB-231 breast,31.3 µM
same,TGI,HS 578T breast,> 100 µM
same,TGI,HCT-15 colon,45.7 µM
same,TGI,ACHN renal,45 µM
same,TGI,NCI-H23 lung,35.4 µM
same,TGI,COLO 205 colon,34.9 µM
same,TGI,OVCAR-8 ovarian,38.7 µM
same,TGI,MDA-N,25 µM
same,TGI,EKVX NSCLC,53.8 µM
same,TGI,RPMI-8226 leukemia,87.2 µM
same,TGI,SK-MEL-2 melanoma,55.8 µM
same,TGI,SNB-75 CNS,25.5 µM
same,TGI,PC-3 prostate,29.9 µM
same,TGI,MALME-3M melanoma,28.2 µM
same,TGI,UO-31 renal,42.8 µM
same,TGI,TK-10 renal,99.8 µM
same,TGI,HCT-116 colon,23.9 µM
same,TGI,NCI/ADR-RES ovarian,> 100 µM
same,TGI,K-562 leukemia,> 100 µM
same,TGI,786-0 renal,30 µM
same,TGI,OVCAR-3 ovarian,54.3 µM
same,TGI,KM12 colon,32 µM
same,TGI,SW-620 colon,35.7 µM
same,TGI,NCI-H460 lung,50 µM
same,TGI,SF-268 CNS,48.4 µM
same,TGI,SK-OV-3 ovarian,42.6 µM
same,TGI,MDA-MB-435,22.3 µM
same,TGI,SK-MEL-5 melanoma,26.7 µM
same,TGI,UACC-257 melanoma,31.6 µM
same,TGI,BT-549 breast,27.4 µM
same,TGI,HOP-92 NSCLC,41.9 µM
same,TGI,SF-539 CNS,34 µM
O=c1[nH]c2ccccc2c(O)c1/C=N/C(=S)NC1CCCCC1,TGI,SNB-19 CNS,> 100 µM
same,TGI,LOX IMVI melanoma,> 100 µM
same,TGI,NCI-H226 lung,> 100 µM
same,TGI,SN12C renal,> 100 µM
same,TGI,IGROV1 ovarian,> 100 µM
same,TGI,MCF7 breast,> 100 µM
same,TGI,CAKI-1 renal,> 100 µM
same,TGI,T-47D breast,> 100 µM
same,TGI,OVCAR-5 ovarian,> 100 µM
same,TGI,A549 NSCLC,> 100 µM
same,TGI,HL-60(TB) leukemia,> 100 µM
same,TGI,HOP-62 NSCLC,> 100 µM
same,TGI,NCI-H522 lung,> 100 µM
same,TGI,UACC-62 melanoma,> 100 µM
same,TGI,RXF 393 renal,> 100 µM
same,TGI,DU-145 prostate,> 100 µM
same,TGI,SF-295 CNS,> 100 µM
same,TGI,HT29 colon,> 100 µM
same,TGI,HCC-2998 colon,> 100 µM
same,TGI,M14 melanoma,> 100 µM
same,TGI,MOLT-4 leukemia,> 100 µM
same,TGI,MDA-MB-231 breast,> 100 µM
same,TGI,HS 578T breast,> 100 µM
same,TGI,HCT-15 colon,> 100 µM
same,TGI,ACHN renal,> 100 µM
same,TGI,NCI-H23 lung,> 100 µM
same,TGI,OVCAR-4 ovarian,> 100 µM
same,TGI,COLO 205 colon,> 100 µM
same,TGI,OVCAR-8 ovarian,> 100 µM
same,TGI,MDA-N,> 100 µM
same,TGI,EKVX NSCLC,> 100 µM
same,TGI,RPMI-8226 leukemia,> 100 µM
same,TGI,SK-MEL-2 melanoma,> 100 µM
same,TGI,SNB-75 CNS,> 100 µM
same,TGI,PC-3 prostate,> 100 µM
same,TGI,UO-31 renal,> 100 µM
same,TGI,U251 CNS,> 100 µM
same,TGI,CCRF-CEM leukemia,> 100 µM
same,TGI,TK-10 renal,> 100 µM
same,TGI,HCT-116 colon,> 100 µM
same,TGI,NCI/ADR-RES ovarian,> 100 µM
same,TGI,K-562 leukemia,> 100 µM
same,TGI,786-0 renal,> 100 µM
same,TGI,OVCAR-3 ovarian,> 100 µM
same,TGI,KM12 colon,> 100 µM
same,TGI,SW-620 colon,> 100 µM
same,TGI,NCI-H460 lung,> 100 µM
same,TGI,SF-268 CNS,> 100 µM
same,TGI,SK-OV-3 ovarian,> 100 µM
same,TGI,MDA-MB-435,> 100 µM
same,TGI,SK-MEL-5 melanoma,> 100 µM
same,TGI,UACC-257 melanoma,> 100 µM
same,TGI,BT-549 breast,> 100 µM
same,TGI,A498 renal,> 100 µM
same,TGI,HOP-92 NSCLC,> 100 µM
same,TGI,SF-539 CNS,> 100 µM
